Data from patent publication US5728686A, “Alkylxanthine phosphonates and alkylxanthine phosphine oxides and their use as pharmaceuticals” (Hoechst Aktiengesellschaft, priority 1996, dated 1998).
≈ marks a conversion by molar mass, not a printed value.

Experiments:
[1] = test system: muscle group (gastrocnemius, plantaris and soleus) of the immobilized right rear extremity; assay: rat muscle function test: direct electrical stimulation of muscle group after 3 weeks' immobilization; format: in vivo, male Wistar rats; conditions: oral, 1x per day for 3 weeks, as a rule 25 mg/kg, ≤-12% classified as active; for Force (force under the contraction curve, right/left difference): isometric stimulation, control difference approx. 25%; for Work (performed work, right/left difference): isotonic stimulation, control approx. -25%
Excerpt: (§1) 1. Activity in the rat muscle function test
(§2) Male Wistar rats (body weight about 300 g) were kept under standard conditions with feed and water ad libitum. The right rear extremity was immobilized by fitting a kind of "shoe" to the animals under short-term anaesthesia. Two ergonomically fitted halves of the "shoe" were cast from a liquid plastic material which is also used for the production of dental prostheses, these were put onto the animal under brief anaesthesia and joined with the aid of a wire. The material is light but hard, so that the animals cannot gnaw the material, and the "shoe" can be opened at any time to examine the condition of the immobilized extremity. The two halves were moreover padded out with chamois leather in order to avoid compressions and possible injuries due to rubbing. The system also has the advantage that the angle of immobilization is standardized in all animals; this would not be possible with a plaster cast. The chosen angle allows the animals to take up a normal sitting position despite the "shoe" and also to carry the body weight using this extremity. Only complete stretching or bending of the leg is impossible.
(§3) After 3 weeks' immobilization of the right rear extremity and simultaneous oral administration of test preparations (1× per day using a stomach tube; as a rule 25 mg/kg of body weight, in carboxymethylcellulose, the animals were weighed and anaesthetized with pentobarbital (35 mg/kg i.p.). Functional parameters were measured during direct electrical stimulation of a muscle group (gastrocnemius, plantaris and soleus). This muscle group, merely called "muscle" in the following, was exposed at the ankle tendon and tied to a force transducer via the tendon.
To determine the contractile force, the muscles were stimulated isometrically, i.e. a preload of 0.5N was applied and the muscle was stimulated by means of a series of electrical pulses, which led to a maximum contraction, every 0.7 sec for 80 msec for a period of 15 min. […] The area under this contraction curve was evaluated and the difference in percent between the right atrophic and left normal muscle compared (force under the contraction curve as difference in percent (Δ%)). The difference in the control group is approximately 25%.
An isotonic muscle stimulation was used to determine the performed work of the muscle over time. In this type of measurement, the shortening of the muscle during contraction is used as a basis. To this end, a preload which corresponds to the body weight was applied to the muscles. A series of stimulation pulses (80 msec) were triggered every 3 sec and the muscle was stimulated for 15 min. The data (contraction force and distance travelled) were converted to the work performed in the unit J using an automated system. The difference in the work performed between the immobilized atrophic and the normal muscle in the control animals was approximately -25%.
Values which are positive indicate that the functional parameters of the immobilized muscle were better than those of the contralateral normal muscle.

soleus muscle = assay: rat muscle function test: muscle weight (atrophy of immobilized extremity); format: in vivo, male Wistar rats; conditions: oral, 1x per day for 3 weeks, as a rule 25 mg/kg, difference ≤25% classified as an effect
Excerpt: as §1, §2
In spite of this, a significant decrease in the skeletal muscle mass (atrophy) of the immobilized extremity occurred, to be precise up to -35% in comparison with the contralateral nonimmobilized rear extremity. As the soleus muscle was the most severely affected, the changes in muscle weight after administration of preparation shown in Table 1 relate to this muscle. A difference of ≤25% between the right immobilized and left non-immobilized rear extremity was classified as an effect.
as §3

[2] = test system: isolated guinea pig trachea, agonist substance P; assay: antagonist of substance P-induced contraction of isolated guinea pig trachea; format: cell-based; conditions: Cavia porcellus, individual doses, 37° C., read-out: Anticontractile action (trachea), SP antagonism: concentration range for dilatation corresponding to ED50 range
Excerpt: 3. Activity as antagonist of the contraction of isolated guinea pig trachea
The compounds of the formula I are used as antagonists of the contraction of isolated guinea pig trachea. The agonists employed were PGF2α (Upjohn, Germany), calcium ionophore A23187 (Calbiochem, Bad Soden, Germany), and substance P (American Peptide Comp., USA):
The antagonism is possible on the one hand due to specific receptor antagonists, and on the other hand also due to inhibition of the subsequent signal pathway. Preparations which directly or indirectly increase the intracellular concentration of cyclic nucleotides in particular show spasmolytic properties here.
(§4) Preparation of the organ sections and experimental procedure:
The guinea pig is sacrificed by means of terminal laughing gas anaesthesia. The trachea is exposed along its entire length and cut into 15 individual cartilage rings. 5 rings in each case are tied together to give a chain and fixed in the organ bath under a preload of 3 g. After an equilibration time of 45 minutes, a contraction is produced using the agonist. The antagonist (test preparation) is added cumulatively on the plateau of the maximum. Evaluation is carried out in % force change relative to the contraction maximum. The experimental procedure is carried out at 37° C.; the physiological nutrient solution used is a modified Krebs-Henseleit solution through which is bubbled 95% by volume of O2, 5% by volume of CO2.
Experimental animals: albino guinea pigs (Hattersheim Animal Breeding Institute, Kastengrund, Germany), weight: 200 to 300 g, sex male or female.
Vehicle: double-distilled water, ethanol or isopropanol; administration: into the organ bath number of administration: cumulative, in SP individual doses
All numerical values are indicated in the unit μg/ml and relate to the concentration range of the tested compound of the formula I according to the invention (see example numbers in Table 1) which is necessary in order to cause a dilatation which corresponds to the ED50 range.

[3] = test system: isolated guinea pig lung strips, Platelet activating factor (PAF); assay: antagonist of PAF-induced contraction of isolated guinea pig lung strips; format: cell-based; conditions: Cavia porcellus, read-out: Anticontractile action (lung), PAF: concentration range corresponding to the IC50 value
Excerpt: (§5) 4. Activity as an antagonist of the contraction of isolated guinea pig lung strips
(§6) The test carried out is based on the same principle as the test indicated in the pharmacological test 3; however, lung strips are used here.
as §4
(§7) The guinea pig is sacrificed under laughing gas anaesthesia. The entire pulmonary tract is exposed starting from the trachea. The lobes of the lung are cut in a circular fashion such that 3 mm wide strips are formed. The strips of the upper lobes are divided in order to obtain a total of six approximately equal size strips. The strips are suspended in the organ baths under a preload of 4 g. The nutrient solutions used are modified Krebs Henseleit solutions. When using "Platelet activating factor" (PAF) as an […], the composition of this solution corresponds to that for the agonist SP in "Test 3"; for the agonist LTD4 a Krebs Henseleit solution as in the case of the agonist KCl (Test 3) is used. 95% by volume O2, 5% by volume CO2 is used for bubbling through the bath; the bath temperature is 37° C. The experimental procedure is carried out in a therapeutically cumulative methodology, using the dosage graduations 1, 3, 6 and 10 μg/ml.
(§8) The experimental animals, organ bath, vehicles and manner of administration correspond to that stated in pharmacological test 3.
(§9) All numerical values are indicated in the unit μg/ml and relate to the concentration range of tested compound of the formula I (see example numbers in Table 1) which is necessary in order to cause a contraction which corresponds to the IC50 value.

phosphodiesterase III = assay: inhibition of phosphodiesterase III activity; format: biochemical; conditions: at 100 μM
Description: 5. Inhibition of phosphodiesterase III activity
The test is carried out using phosphodiesterase from Boehringer Mannheim (Mannheim, Germany), Order No. 108 243 according to the method of T. SAEKI, I. SAITO, Biochem. Pharm. 46, No. 5, […], pages 833-839.
All numerical values are indicated in % inhibition of the enzyme activity at 100 μM of the corresponding compound of the formula I.

[4] = test system: isolated guinea pig lung strips, leukotriene D4 (LTD4); assay: antagonist of LTD4-induced contraction of isolated guinea pig lung strips; format: cell-based; conditions: Cavia porcellus, read-out: Anticontractile action (lung), LTD4: concentration range corresponding to the IC50 value
Excerpt: as §5, §6, §4, §7, §8, §9

Compound | Force (force under the contraction curve, right/left difference) [1] | Work (performed work, right/left difference) [1] | Muscle weight (right/left difference) (soleus muscle) | EC50 [2] | IC50 [3] | PDE III Inhibition (phosphodiesterase III) | IC50 [4]
CCOP(=O)(CCCn1c(=O)c2c(ncn2C)n(C)c1=O)OCC [Example 33, Diethyl [3-(3,7-dimethylxanthin-1-yl)propyl]phosphonate] | -7 Δ % | -10 Δ % | -16 Δ % | 10 to 30 µg/mL (≈ 27.9 to 83.7 µM) | 3 to 6 µg/mL (≈ 8.37 to 16.7 µM) |  | 
CCCn1cnc2c1c(=O)n(CCCCCP(=O)(OCC)OCC)c(=O)n2CC [Example 57, Diethyl [5-(3-ethyl-7-propylxanthin-1-yl)pentyl]phosphonate] | -5 Δ % | -8 Δ % | -17 Δ % |  |  | 70% | 
CCCn1cnc2c1c(=O)n(CCCCCP(=O)(OCC)OCC)c(=O)n2C [Example 17, Diethyl [5-(3-methyl-7-propylxanthin-1-yl)-pentyl]phosphonate] | +2 Δ % | -10 Δ % | 0 Δ % | 30 to 60 µg/mL (≈ 72.4 to 145 µM) | 1 to 3 µg/mL (≈ 2.41 to 7.24 µM) | 77% | 1 to 3 µg/mL (≈ 2.41 to 7.24 µM)
CCOP(=O)(CCCCCn1c(=O)c2c(ncn2CC2CC2)n(C)c1=O)OCC [Example 49, Diethyl [5-(7-cyclopropylmethyl-3-methylxanthin-1-yl)pentyl]phosphonate] | -5 Δ % | -5 Δ % | -25 Δ % |  |  | 57% | 3 to 6 µg/mL (≈ 7.03 to 14.1 µM)
CCOP(=O)(CCCCCn1c(=O)c2c(ncn2Cc2ccccc2)n(C)c1=O)OCC [Example 43, Diethyl [5-(7-benzyl-3-methylxanthin-1-yl)pentyl]phosphonate] |  |  |  |  | 1 to 3 µg/mL (≈ 2.16 to 6.49 µM) | 52% | 1 to 6 µg/mL (≈ 2.16 to 13 µM)
CCOP(=O)(CCCCn1cnc2c1c(=O)n(CCC(C)C)c(=O)n2C)OCC [Example 15, Diethyl [4-(1-(3-methylbutyl)-3-methylxanthin-7-yl)butyl]phosphonate] | +5 Δ % | +2 Δ % | 0 Δ % | 30 to 60 µg/mL (≈ 70 to 140 µM) |  |  | 
CCOP(=O)(CCCn1c(=O)c2c(ncn2C(C)C)n(C)c1=O)OCC [Example 47] |  | -6 Δ % | 0 Δ % | 10 to 30 µg/mL (≈ 25.9 to 77.6 µM) |  | 64% | 
CCOP(=O)(CCCCCn1c(=O)c2c(ncn2CC)n(C)c1=O)OCC [Example 20, Diethyl 5-(7-ethyl-3-methylxanthin-1-yl)pentylphosphonate] |  |  |  | 10 to 30 µg/mL (≈ 25 to 74.9 µM) |  | 65% | 
CCOP(=O)(CCCn1c(=O)c2c(ncn2CC2CC2)n(C)c1=O)OCC [Example 46, Diethyl [3-(7-cyclopropylmethyl-3-methylxanthin-1-yl)propyl]phosphonate] | +1 Δ % | +9 Δ % | -17 Δ % |  |  | 67% | 
CCCn1cnc2c1c(=O)n(CCCP(=O)(OCC)OCC)c(=O)n2C [Example 55, Diethyl [3-(3-methyl-7-propylxanthin-1-yl)propyl]phosphonate] |  |  |  |  | 1 to 3 µg/mL (≈ 2.59 to 7.76 µM) | 59% | 
CCCn1c(=O)c2c(ncn2CCCP(=O)(OCC)OCC)n(CCC)c1=O [Example 9, Diethyl [3-(1,3-dipropylxanthin-7-yl)propyl]phosphonate] |  |  |  | 10 to 30 µg/mL (≈ 24.1 to 72.4 µM) |  |  | 3 to 6 µg/mL (≈ 7.24 to 14.5 µM)
CCCCn1cnc2c1c(=O)n(CCCCCP(=O)(OCC)OCC)c(=O)n2C [Example 48, Diethyl [5-(7-butyl-3-methylxanthin-1-yl)pentyl]phosphonate] | -3 Δ % | -7 Δ % | 0 Δ % |  |  | 52% | 
CCCn1cnc2c1c(=O)n(CCCCP(=O)(OCC)OCC)c(=O)n2C [Example 32, Diethyl [4-(3-methyl-7-propyl-xanthin-1-yl)butyl]phosphonate] | -9 Δ % | -1 Δ % | 0 Δ % | 10 to 30 µg/mL (≈ 25 to 74.9 µM) | 6 to 10 µg/mL (≈ 15 to 25 µM) | 65% | 6 to 10 µg/mL (≈ 15 to 25 µM)
